Laboratory results taken from patent publication US6461997B1, “Triazole sulfones having herbicidal activity” (Monsanto Technology LLC, priority 1999, dated 2002).

Experiments:
AMARE (redroot pigweed) = assay: Pre-emergence herbicidal activity, warm season; format: in vivo, Amaranthus retroflexus; settings: GR80 = lowest tested rate (300, 100, 30, 10 g/ha) with 80% or greater inhibition; approx. 14 days after treating; 30/21° C.
Method in brief: (§1)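 GR80 values derive from percent inhibition relative to untreated plants, read roughly 14 days after sowing and pre-emergence soil-surface treatment (compound in 50:50 acetone/water; rates typically 10, 30, 100, 300 g/ha). Warm-season weeds grew at 30/21° C day/night, cool-season ones at 18/13° C; an asterisk marks activity without reaching 80% at the highest rate.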

[1] = tested on: CHEAL (common lambsquarters); assay: Pre-emergence herbicidal activity, warm season; format: in vivo, Chenopodium album; settings: GR80 = lowest tested rate (300, 100, 30, 10 g/ha) with 80% or greater inhibition; approx. 14 days after treating; 30/21° C.
Method in brief: as §1

CONAR (field bindweed) = assay: Pre-emergence herbicidal activity, warm season; format: in vivo, Convolvulus arvensis; settings: GR80 = lowest tested rate (300, 100, 30, 10 g/ha) with 80% or greater inhibition; approx. 14 days after treating; 30/21° C.
Experimental: (§2) Tables 5 to 8 summarize results of tests conducted as described below to determine the pre-emergence herbicidal activity, in the form of a GR80 value, of illustrative compounds of this invention. […] Compounds of the invention were typically applied at rates of 300, 100, 30, and 10 g/ha. Where herbicidal activity was evident but 80% inhibition was not achieved at the highest rate tested, an asterisk (*) is shown in the following tables.
(§3) The pre-emergence tests were conducted by the following procedure. Topsoil was sieved to pass through a 1.27 cm screen. Fertilizer was added to the topsoil and the mixture was then sterilized by heating. The topsoil mixture was placed in a pot and compacted to a depth of 1.0 to 1.25 cm from the top of the pot. Seeds of each of several monocotyledonous and dicotyledonous annual plant species were placed on top of the soil. Additional soil was subsequently placed over the seeds to level-fill the pot. A known amount of each test compound dissolved or suspended in an appropriate organic solvent was diluted with a 50:50 mix of acetone and water and applied to the surface of the soil. After treatment the plants were placed in a greenhouse where they received 0.64 cm of overhead irrigation. All subsequent watering consisted of a light overhead mist and/or subirrigation as needed for germination and growth. Tables 5 and 6 below relate to warm season plant species which were placed after pre-emergence treatment in a greenhouse with a 30/21° C. day/night temperature regime. Tables 7 and 8 below relates to cool season plant species placed after pre-emergence treatment in a greenhouse or growth chamber with an 18/13° C. day/night temperature regime.
(§4) Approximately 14 days after planting and treating, the plants were observed and herbicidal efficacy recorded as percent inhibition by comparison with untreated plants.
(§5) The plant species usually regarded as weeds which were utilized in the tests are identified in the tables below according to the following legend, in which “d” indicates a dicotyledonous species and “m” a monocotyledonous species. All monocotyledonous species included in the tests herein are grasses.

POROL (common purslane) = assay: Pre-emergence herbicidal activity, warm season; format: in vivo, Portulaca oleracea; settings: GR80 = lowest tested rate (300, 100, 30, 10 g/ha) with 80% or greater inhibition; approx. 14 days after treating; 30/21° C.
Method in brief: as §1

[2] = tested on: CIRAR (canada thistle (seedling)); assay: Pre-emergence herbicidal activity, warm season; format: in vivo, Cirsium arvense; settings: GR80 = lowest tested rate (300, 100, 30, 10 g/ha) with 80% or greater inhibition; approx. 14 days after treating; 30/21° C.
Method in brief: as §1

[3] = tested on: PANMI (wild proso millet); assay: Pre-emergence herbicidal activity, warm season; format: in vivo, Panicum miliaceum; settings: GR80 = lowest tested rate (300, 100, 30, 10 g/ha) with 80% or greater inhibition; approx. 14 days after treating; 30/21° C.
Method in brief: as §1

[4] = tested on: SORHA (johnsongrass (seedling)); assay: Pre-emergence herbicidal activity, warm season; format: in vivo, Sorghum halepense; settings: GR80 = lowest tested rate (300, 100, 30, 10 g/ha) with 80% or greater inhibition; approx. 14 days after treating; 30/21° C.
Method in brief: as §1

SETFA (giant foxtail) = assay: Pre-emergence herbicidal activity, warm season; format: in vivo, Setaria faberi; settings: GR80 = lowest tested rate (300, 100, 30, 10 g/ha) with 80% or greater inhibition; approx. 14 days after treating; 30/21° C.
Method in brief: as §1

DIGSA (large crabgrass) = assay: Pre-emergence herbicidal activity, warm season; format: in vivo, Digitaria sanguinalis; settings: GR80 = lowest tested rate (300, 100, 30, 10 g/ha) with 80% or greater inhibition; approx. 14 days after treating; 30/21° C.
Method in brief: as §1

[5] = tested on: GALAP (catchweed bedstraw); assay: Pre-emergence herbicidal activity, cool season; format: in vivo, Galium aparine; settings: lowest tested rate with 80% or greater inhibition; rates 300, 100, 30, 10 g/ha; about 14 days
Method in brief: as §1

POLCO (wild buckwheat) = assay: Pre-emergence herbicidal activity, cool season; format: in vivo, Polygonum convolvulus; settings: lowest tested rate with 80% or greater inhibition; rates 300, 100, 30, 10 g/ha; about 14 days
Method in brief: as §1

SINAR (wild mustard) = assay: Pre-emergence herbicidal activity, cool season; format: in vivo, Sinapis arvensis; settings: lowest tested rate with 80% or greater inhibition; rates 300, 100, 30, 10 g/ha; about 14 days
Method in brief: as §1

[6] = tested on: VERPE (creeping speedwell); assay: Pre-emergence herbicidal activity, cool season; format: in vivo, Veronica persicaria; settings: lowest tested rate with 80% or greater inhibition; rates 300, 100, 30, 10 g/ha; about 14 days
Method in brief: as §1

SASKR (russian thistle) = assay: Pre-emergence herbicidal activity, cool season; format: in vivo, Salsola kali; settings: lowest tested rate with 80% or greater inhibition; rates 300, 100, 30, 10 g/ha; about 14 days
Method in brief: as §1

STEME (common chickweed) = assay: Pre-emergence herbicidal activity, cool season; format: in vivo, Stellaria media; settings: lowest tested rate with 80% or greater inhibition; rates 300, 100, 30, 10 g/ha; about 14 days
Method in brief: as §1

[7] = tested on: LAMPU (purple deadnettle); assay: Pre-emergence herbicidal activity, cool season; format: in vivo, Lamium purpureum; settings: lowest tested rate with 80% or greater inhibition; rates 300, 100, 30, 10 g/ha; about 14 days
Method in brief: as §1

ALOMY (blackgrass) = assay: Pre-emergence herbicidal activity, cool season; format: in vivo, Alopecurus myosuroides; settings: GR80 = lowest tested rate (300, 100, 30, 10 g/ha) with 80% or greater inhibition; approx. 14 days after treating; 18/13° C.
Method in brief: as §1

SETVI (green foxtail) = assay: Pre-emergence herbicidal activity, cool season; format: in vivo, Setaria viridis; settings: GR80 = lowest tested rate (300, 100, 30, 10 g/ha) with 80% or greater inhibition; approx. 14 days after treating; 18/13° C.
Method in brief: as §1

LOLMG (annual ryegrass) = assay: Pre-emergence herbicidal activity, cool season; format: in vivo, Lolium multiflorum; settings: GR80 = lowest tested rate (300, 100, 30, 10 g/ha) with 80% or greater inhibition; approx. 14 days after treating; 18/13° C.
Method in brief: as §1

[8] = tested on: AEGCY (jointed goatgrass); assay: Pre-emergence herbicidal activity, cool season; format: in vivo, Aegilops cylindrica; settings: GR80 = lowest tested rate (300, 100, 30, 10 g/ha) with 80% or greater inhibition; approx. 14 days after treating; 18/13° C.
Experimental: as §2, §3, §4, §5

[9] = tested on: AGSST (creeping bentgrass); assay: Pre-emergence herbicidal activity, cool season; format: in vivo, Agrostis stolonifera; settings: GR80 = lowest tested rate (300, 100, 30, 10 g/ha) with 80% or greater inhibition; approx. 14 days after treating; 18/13° C.
Method in brief: as §1

[10] = tested on: BRAPP (broadleaf signalgrass); assay: Pre-emergence herbicidal activity, warm season; format: in vivo, Brachiaria platyphylla; settings: GR80 = lowest tested rate (300, 100, 30, 10 g/ha) with 80% or greater inhibition; approx. 14 days after treating; 30/21° C.
Method in brief: as §1

AVEFA (wild oat) = assay: Pre-emergence herbicidal activity, cool season; format: in vivo, Avena fatua; settings: GR80 = lowest tested rate (300, 100, 30, 10 g/ha) with 80% or greater inhibition; approx. 14 days after treating; 18/13° C.
Experimental: as §2, §3, §4, §5

| SMILES | Pre-emergence activity (GR80) POROL (POROL (common purslane)) [g/ha] | Pre-emergence activity (GR80) CIRAR [2] [g/ha] | Pre-emergence activity (GR80) PANMI [3] [g/ha] | Pre-emergence activity (GR80) SETFA (SETFA (giant foxtail)) [g/ha] | Pre-emergence activity (GR80) DIGSA (DIGSA (large crabgrass)) [g/ha] | Pre-emergence activity GR80, GALAP [5] [g/ha] | Pre-emergence activity GR80, POLCO (POLCO (wild buckwheat)) [g/ha] | Pre-emergence activity GR80, SINAR (SINAR (wild mustard)) [g/ha] | Pre-emergence activity GR80, VERPE [6] | Pre-emergence activity GR80, SASKR (SASKR (russian thistle)) | Pre-emergence activity GR80, STEME (STEME (common chickweed)) [g/ha] | Pre-emergence activity GR80, LAMPU [7] [g/ha] | Pre-emergence activity (GR80) ALOMY (ALOMY (blackgrass)) [g/ha] | Pre-emergence activity (GR80) SETVI (SETVI (green foxtail)) [g/ha] | Pre-emergence activity (GR80) AEGCY [8] [g/ha] | Pre-emergence activity (GR80) AGSST [9] [g/ha] | other results |
| --- | --- | --- | --- | --- | --- | --- | --- | --- | --- | --- | --- | --- | --- | --- | --- | --- | --- |
| O=C(N1CCCC1)n1cnc(S(=O)(=O)C(F)(F)Br)n1 [Example 23, 3-(bromodifluoromethylsulfonyl)-1-(pyrrolidinocarbonyl)-1,2,4-triazole] | 300 | 300 | 100 | 100 | 300 | 300 | 30 | 300 | [empty] | [empty] | 100 | 100 | 300 | 100 | 300 | 100 | Pre-emergence activity (GR80) AMARE (AMARE (redroot pigweed)): 300 g/ha; Pre-emergence activity (GR80) CHEAL [1]: 300 g/ha; Pre-emergence activity (GR80) CONAR (CONAR (field bindweed)): 300 g/ha; Pre-emergence activity (GR80) SORHA [4]: 300 g/ha; Pre-emergence activity (GR80) LOLMG (LOLMG (annual ryegrass)): 300 g/ha |
| C=CCN(C)C(=O)n1cnc(S(=O)(=O)C(F)F)n1 [Example 30] | 300 | 300 | 100 | 300 | 300 | 100 | 100 | 100 | 10 g/ha | 10 g/ha | 10 | 10 | 300 | 300 | 100 | 30 | Pre-emergence activity (GR80) BRAPP [10]: 300 g/ha; Pre-emergence activity (GR80) AVEFA (AVEFA (wild oat)): 100 g/ha |
